Source: publication PMC7409197, “Adenosine Receptors as Neuroinflammation Modulators: Role of A1 Agonists and A2A Antagonists” (Cells, 2020)

Columns and labels:
Format in all cases: cell-based, rat
mixed glial cells [1] = experiment: CellTiter 96 AQueous One (MTS) cell viability, ligands alone, mixed glial cells
Procedure: (§1) Newborn male Wistar rats were sacrificed and mixed glial cell cultures were obtained from the cerebral cortices. Cerebral cortices were dissected, and meninges were cleared away. Tissues were treated with trypsin solution (trypsin 0.05% (w/v) trypsin-EDTA 5 mM) for 25 min at 37 °C. The tissue was fully disaggregated by pipetting and the dissociated cells were seeded in a 6-well plate with Dulbecco’s modified Eagle’s/High glucose medium enriched with 100 U/mL penicillin, 100 µg/mL streptomycin and 10% FBS. Fresh medium was changed the next day and then every 3 days decreasing the quantity of FBS. All experiments were carried out after 7–9 days of plating.
(§2) Mixed glial cell cultures were divided into 2 groups, one to study A1AR partial agonists and another for A2AAR antagonists. Cells from the first group were pre-treated with 2 µL at three different concentrations of C1 for 15, 30 or 60 min and then with further addition of a pro-inflammatory cocktail of cytokines (TNF-α, 20 ng/mL; IL-1β, 20 ng/mL; IFN-γ 20 ng/mL) for 48 h. […] To study C2 cells were pre-treated with the same CK cocktail for 48 h and then with 2 µL of C2 at three different concentrations for 15, 30, or 60 min (Scheme 1). ZM241385, a well known A2AAR antagonist, was used as reference compound. Furthermore, ligands and CK were tested alone for 15, 30 or 60 min and 48 h respectively.
(§3) 1.7 × 10^4 mixed glial cells were cultured in 98 μL of the specific medium in a 96 well plate overnight. The next day 2 μL of ligand or CK cocktail were added to the well. After all treatments, 20 µL of CellTiter 96® AQueous One Solution Reagent was added in a final volume of 100 µL. Absorbance was read at 490 nm using the plate reader GENiosPro. Cell viability was calculated as percentage using the following formula: Cell viability =OD mean of treated cells/OD mean of control cells × 100

mixed glial cells [2] = experiment: MTS cell viability in cytokine cocktail (CK) inflammatory model, mixed glial cells
Procedure: as §1, §2, §3

mixed glial cells [3] = experiment: Griess assay (nitrite production) in mixed glial cells; conditions: 10 nM, 30 min, after CK cocktail
Procedure: To test the antioxidant capacity of these new molecules Griess assay was performed. The Griess Reagent System is based in the conversion of sulphanilamide into an azo-compound with the presence of N-1-napthylenediamide dihydrochloride (NED) under acidic condition. 1.7 × 10^4 mixed glial cells were cultured in 98 μL of the specific medium in a 96 well plate overnight. After 24 h the media from each well of the cell culture was transferred into a 96 well plate and then 50 µL of the sulphanilamide solution was added to each well. After 5–10 min of incubation at room temperature (rt), 50 µL of the NED Solution were dispensed to all wells and they were incubated at rt for other 5–10 min. Absorbance was measured within 30 min in the plate reader GENiosPro with a filter between 520 nm and 550 nm. This experiment was performed 3–5 replicates. Concentration of NO¬¬¬¬2¯ in each sample was determined by comparison to a Nitrite standard reference curve.

Row | SMILES | cell viability vs. control (mixed glial cells [1]; ligand alone, 5, 10, 60 nM, 15, 30, 60 min) | prevention of CK aggression (cell viability, words) (mixed glial cells [2]; pre-treatment before CK cocktail 48 h, C1 2-30 µM, CCPA 10 nM 30 min) | cell viability vs. control (mixed glial cells [1]; ligand alone, 10 nM, time not stated at the place (highest effect at 30 min)) [%] | nitrite levels in presence of CK cocktail (mixed glial cells [3]) | cell viability vs. control (mixed glial cells [2]; CK cocktail 20 ng/mL 48 h, then ligand 10 nM for 30 min) [%]
1 | OC[C@H]1O[C@@H](n2cnc3c(NC4CCCC4)nc(Cl)nc32)[C@H](O)[C@@H]1O [CCPA, 2-chloro-N^6-cyclopentyladenosine, reference compound] | did not change cell viability significantly | prevent the CK aggression | – | – | –
2 | Nc1nc(NCCc2ccc(O)cc2)nc2nc(-c3ccco3)nn12 [ZM241385, reference compound] | – | – | 135 ± 3.5 | able to decrease NO¬¬¬¬2¯ levels induced by CK more than the well know ZM241385 | 136 ± 1.7
